# Measured values: ChEMBL document CHEMBL5214927, “Recent advance on carbamate-based cholinesterase inhibitors as potential multifunctional agents against Alzheimer's disease” (Eur J Med Chem, 2022)
# pIC50, pKi: −log10 of the molar value.
# Tests used:
# Acetylcholinesterase [1] = target: T1, Acetylcholinesterase (Rattus norvegicus, UniProt P37136); assay: Inhibition of rat AChE by Ellman's method
# T1 sequence (P37136 whole entry): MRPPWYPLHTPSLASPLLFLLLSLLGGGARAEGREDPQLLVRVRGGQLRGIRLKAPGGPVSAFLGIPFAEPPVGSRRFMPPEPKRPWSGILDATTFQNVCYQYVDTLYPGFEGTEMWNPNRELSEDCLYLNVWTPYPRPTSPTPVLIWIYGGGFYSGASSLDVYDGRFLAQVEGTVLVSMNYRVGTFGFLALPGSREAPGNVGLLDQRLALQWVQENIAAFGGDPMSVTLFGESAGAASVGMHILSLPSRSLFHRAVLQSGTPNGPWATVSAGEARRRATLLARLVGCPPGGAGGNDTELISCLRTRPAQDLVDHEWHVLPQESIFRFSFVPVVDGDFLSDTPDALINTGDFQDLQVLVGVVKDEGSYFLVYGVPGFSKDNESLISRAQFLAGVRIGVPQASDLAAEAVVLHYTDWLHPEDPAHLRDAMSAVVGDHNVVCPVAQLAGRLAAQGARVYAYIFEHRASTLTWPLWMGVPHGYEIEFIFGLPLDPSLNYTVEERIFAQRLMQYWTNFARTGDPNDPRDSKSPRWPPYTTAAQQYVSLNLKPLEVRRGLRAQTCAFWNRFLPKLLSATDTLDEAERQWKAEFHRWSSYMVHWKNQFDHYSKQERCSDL
# [2] = target: T2, Amine oxidase [flavin-containing] A (Homo sapiens, UniProt P21397); assay: Inhibition of MAO-A (unknown origin)
# T2 sequence (P21397 whole entry): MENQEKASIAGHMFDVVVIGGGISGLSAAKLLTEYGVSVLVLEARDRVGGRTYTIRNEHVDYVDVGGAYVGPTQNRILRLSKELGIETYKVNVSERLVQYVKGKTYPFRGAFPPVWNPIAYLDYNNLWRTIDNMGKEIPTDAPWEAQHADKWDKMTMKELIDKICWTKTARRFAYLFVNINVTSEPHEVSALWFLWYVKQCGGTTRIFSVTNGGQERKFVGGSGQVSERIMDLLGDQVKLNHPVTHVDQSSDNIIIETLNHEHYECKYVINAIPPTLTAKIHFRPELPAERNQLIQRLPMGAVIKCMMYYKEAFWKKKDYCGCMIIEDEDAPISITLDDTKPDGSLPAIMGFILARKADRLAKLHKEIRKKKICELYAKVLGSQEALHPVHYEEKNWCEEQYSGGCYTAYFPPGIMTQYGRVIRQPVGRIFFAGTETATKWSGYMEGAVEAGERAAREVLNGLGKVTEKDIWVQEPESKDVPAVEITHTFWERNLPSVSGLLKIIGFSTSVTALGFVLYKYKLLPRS
# [3] = target: T3, Amine oxidase [flavin-containing] B (Homo sapiens, UniProt P27338); assay: Inhibition of MAO-B (unknown origin)
# T3 sequence (P27338 whole entry): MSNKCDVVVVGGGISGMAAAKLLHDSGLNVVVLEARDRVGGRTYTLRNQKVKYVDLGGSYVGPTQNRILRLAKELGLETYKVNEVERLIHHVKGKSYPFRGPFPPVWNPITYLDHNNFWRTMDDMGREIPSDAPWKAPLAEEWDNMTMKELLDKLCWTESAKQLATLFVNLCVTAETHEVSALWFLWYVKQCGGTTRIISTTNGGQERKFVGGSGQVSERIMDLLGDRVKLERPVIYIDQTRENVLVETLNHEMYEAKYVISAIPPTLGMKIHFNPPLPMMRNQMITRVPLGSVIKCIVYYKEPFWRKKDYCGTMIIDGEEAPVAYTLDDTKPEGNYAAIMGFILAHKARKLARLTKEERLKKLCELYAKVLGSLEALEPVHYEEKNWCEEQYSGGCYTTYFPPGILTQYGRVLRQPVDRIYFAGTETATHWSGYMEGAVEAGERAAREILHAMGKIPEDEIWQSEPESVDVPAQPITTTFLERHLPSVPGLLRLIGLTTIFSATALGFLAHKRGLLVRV
# Acetylcholinesterase [4] = target: T4, Acetylcholinesterase (Homo sapiens, UniProt P22303); assay: Inhibition of human whole red blood cells AChE using acetylthiocholine iodide as substrate incubated for 25 mins by Ellman's method
# T4 sequence (P22303 whole entry): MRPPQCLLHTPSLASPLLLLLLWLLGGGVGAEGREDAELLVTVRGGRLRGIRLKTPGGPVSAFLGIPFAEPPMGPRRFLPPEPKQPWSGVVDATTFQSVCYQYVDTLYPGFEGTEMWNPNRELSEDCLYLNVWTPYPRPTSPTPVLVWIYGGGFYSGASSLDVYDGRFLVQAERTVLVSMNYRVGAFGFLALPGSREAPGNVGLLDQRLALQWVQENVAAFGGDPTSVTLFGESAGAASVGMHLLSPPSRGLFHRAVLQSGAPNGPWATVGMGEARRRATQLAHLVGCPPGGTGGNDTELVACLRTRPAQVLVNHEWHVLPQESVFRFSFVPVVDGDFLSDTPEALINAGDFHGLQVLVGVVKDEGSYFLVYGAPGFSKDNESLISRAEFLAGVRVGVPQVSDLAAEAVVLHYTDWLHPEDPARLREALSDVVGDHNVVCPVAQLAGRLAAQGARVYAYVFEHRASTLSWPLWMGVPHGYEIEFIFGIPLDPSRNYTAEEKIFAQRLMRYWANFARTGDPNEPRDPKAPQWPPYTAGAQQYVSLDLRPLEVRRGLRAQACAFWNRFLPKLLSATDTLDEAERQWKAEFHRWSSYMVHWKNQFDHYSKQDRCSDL
# Cholinesterase [5] = target: T5, Cholinesterase (Homo sapiens, UniProt P06276); assay: Inhibition of human whole red blood cells BChE using butyrylthiocholine iodide as substrate incubated for 25 mins by Ellman's method
# T5 sequence (P06276 whole entry): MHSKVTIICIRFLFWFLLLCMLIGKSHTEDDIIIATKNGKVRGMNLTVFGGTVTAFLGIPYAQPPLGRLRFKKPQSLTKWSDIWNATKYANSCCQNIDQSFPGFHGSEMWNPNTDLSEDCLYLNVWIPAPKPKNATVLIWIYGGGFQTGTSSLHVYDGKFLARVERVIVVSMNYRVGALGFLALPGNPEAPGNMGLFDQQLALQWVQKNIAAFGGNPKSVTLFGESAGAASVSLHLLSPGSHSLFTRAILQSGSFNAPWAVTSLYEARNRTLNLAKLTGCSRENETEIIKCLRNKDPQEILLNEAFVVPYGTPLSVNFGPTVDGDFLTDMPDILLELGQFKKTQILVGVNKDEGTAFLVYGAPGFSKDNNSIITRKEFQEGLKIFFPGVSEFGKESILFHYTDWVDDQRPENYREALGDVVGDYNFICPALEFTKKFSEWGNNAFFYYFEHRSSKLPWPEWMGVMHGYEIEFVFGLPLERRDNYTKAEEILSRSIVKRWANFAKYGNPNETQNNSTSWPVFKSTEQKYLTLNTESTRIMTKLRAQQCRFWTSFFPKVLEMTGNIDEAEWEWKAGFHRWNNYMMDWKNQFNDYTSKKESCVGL
# [6] = target: T6, Cholinesterases; ACHE & BCHE (Homo sapiens) (UniProt P06276+P22303); assay: Selectivity index, ratio of IC50 for human whole red blood cells BChE to IC50 for human whole red blood cells AChE
# T6 sequence (P06276 whole entry, looked up): as the sequence (P06276 whole entry) above
# T6 sequence (P22303 whole entry, looked up): as the sequence (P22303 whole entry) above
# Acetylcholinesterase [7] = target: T4, Acetylcholinesterase; assay: Binding affinity to human AChE assessed as inhibition constant using acetylthiocholine iodide as substrate preincubated for 10 mins followed by substrate addition by Ellman's method
# Carbonic anhydrase 1 = Carbonic anhydrase 1 (Homo sapiens, UniProt P00915); assay: Binding affinity to human CA1 assessed as inhibition constant using p-nitrophenylacetate as substrate by spectrophotometry
# Sequence of Carbonic anhydrase 1 (P00915 whole entry): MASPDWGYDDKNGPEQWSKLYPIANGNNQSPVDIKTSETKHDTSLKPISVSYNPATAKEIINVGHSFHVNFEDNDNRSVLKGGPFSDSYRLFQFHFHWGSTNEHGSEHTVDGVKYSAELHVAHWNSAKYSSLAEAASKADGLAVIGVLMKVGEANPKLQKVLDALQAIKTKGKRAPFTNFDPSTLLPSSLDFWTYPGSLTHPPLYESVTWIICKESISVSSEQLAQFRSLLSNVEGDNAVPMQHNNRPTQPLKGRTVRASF
# Carbonic anhydrase 2 = Carbonic anhydrase 2 (Homo sapiens, UniProt P00918); assay: Binding affinity to human CA2 assessed as inhibition constant using p-nitrophenylacetate as substrate by spectrophotometry
# [8] = Selectivity index, ratio of IC50 for human plasma BChE to IC50 for electric eel AChE
# Acetylcholinesterase [9] = target: T4, Acetylcholinesterase; assay: Inhibition of recombinant human AChE using acetylthiocholine as substrate at 100 uM preincubated for 5 mins followed by substrate addition measured for 1 min by Ellman's method relative to control; settings: time 6.0 min
# [10] = target: T2, Amine oxidase [flavin-containing] A; assay: Inhibition of recombinant human MAO-A expressed in BTI-TN-5B1-4 insect cells using p-tyramine as substrate at 100 uM preincubated for 15 mins followed by substrate addition measured after 20 mins by Amplex Red assay relative to control; settings: BTI-TN-5B1-4, human, time 35 min
# Acetylcholinesterase [11] = target: T4, Acetylcholinesterase; assay: Binding affinity to human AChE assessed as inhibition constant
# Cholinesterase [12] = target: T5, Cholinesterase; assay: Binding affinity to human BChE assessed as inhibition constant
# [13] = target: Fatty-acid amide hydrolase 1 (Rattus norvegicus, UniProt P97612); assay: Displacement of [14C]-ethanolamine from FAAH derived from rat brain membrane fraction preincubated for 20 mins followed by susbstrate addition by scintillation counting method; format: cell membranes
# Sequence of Fatty-acid amide hydrolase 1 (P97612 whole entry): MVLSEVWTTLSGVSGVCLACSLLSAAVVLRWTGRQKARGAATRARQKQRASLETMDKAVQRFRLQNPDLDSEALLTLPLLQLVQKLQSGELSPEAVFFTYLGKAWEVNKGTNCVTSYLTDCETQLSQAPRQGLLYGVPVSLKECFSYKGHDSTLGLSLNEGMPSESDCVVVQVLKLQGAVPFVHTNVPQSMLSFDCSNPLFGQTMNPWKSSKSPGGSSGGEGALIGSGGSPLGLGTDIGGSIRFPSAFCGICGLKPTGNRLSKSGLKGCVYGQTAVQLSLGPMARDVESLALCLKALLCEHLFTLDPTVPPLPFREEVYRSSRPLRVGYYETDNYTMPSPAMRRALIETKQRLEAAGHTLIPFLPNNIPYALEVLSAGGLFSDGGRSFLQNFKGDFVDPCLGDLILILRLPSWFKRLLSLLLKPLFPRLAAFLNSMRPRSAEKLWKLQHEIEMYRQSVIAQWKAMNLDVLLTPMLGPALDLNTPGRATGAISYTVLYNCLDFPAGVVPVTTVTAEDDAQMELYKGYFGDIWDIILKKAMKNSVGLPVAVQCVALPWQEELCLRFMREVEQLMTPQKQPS
# [14] = target: T6, Cholinesterases; ACHE & BCHE (Homo sapiens); assay: Selectivity index, ratio of IC50 for recombinant human serum AChE to IC50 for recombinant human serum BChE; format: protein assay
# Cholinesterase [15] = target: Cholinesterase (Equus caballus, UniProt P81908); assay: Inhibition of equine BChE
# Sequence of Cholinesterase (Equus caballus, UniProt P81908) (P81908 whole entry): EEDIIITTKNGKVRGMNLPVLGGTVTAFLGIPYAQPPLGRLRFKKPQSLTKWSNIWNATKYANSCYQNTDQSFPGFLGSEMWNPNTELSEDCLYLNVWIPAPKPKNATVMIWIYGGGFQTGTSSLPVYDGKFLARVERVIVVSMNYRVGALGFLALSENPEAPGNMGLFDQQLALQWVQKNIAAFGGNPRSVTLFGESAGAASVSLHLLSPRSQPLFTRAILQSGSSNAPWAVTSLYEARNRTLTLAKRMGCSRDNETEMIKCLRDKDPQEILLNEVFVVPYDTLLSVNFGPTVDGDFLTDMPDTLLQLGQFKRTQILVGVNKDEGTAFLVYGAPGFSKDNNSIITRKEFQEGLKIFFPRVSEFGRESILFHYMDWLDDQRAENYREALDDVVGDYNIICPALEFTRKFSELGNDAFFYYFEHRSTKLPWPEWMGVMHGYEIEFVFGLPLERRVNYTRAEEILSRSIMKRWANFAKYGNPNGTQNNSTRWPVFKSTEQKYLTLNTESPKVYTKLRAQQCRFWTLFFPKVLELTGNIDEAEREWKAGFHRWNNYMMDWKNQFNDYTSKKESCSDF
# [16] = target: High affinity cGMP-specific 3',5'-cyclic phosphodiesterase 9A (Homo sapiens, UniProt O76083); assay: Inhibition of PDE9A (unknown origin)
# Sequence of High affinity cGMP-specific 3',5'-cyclic phosphodiesterase 9A (O76083 whole entry): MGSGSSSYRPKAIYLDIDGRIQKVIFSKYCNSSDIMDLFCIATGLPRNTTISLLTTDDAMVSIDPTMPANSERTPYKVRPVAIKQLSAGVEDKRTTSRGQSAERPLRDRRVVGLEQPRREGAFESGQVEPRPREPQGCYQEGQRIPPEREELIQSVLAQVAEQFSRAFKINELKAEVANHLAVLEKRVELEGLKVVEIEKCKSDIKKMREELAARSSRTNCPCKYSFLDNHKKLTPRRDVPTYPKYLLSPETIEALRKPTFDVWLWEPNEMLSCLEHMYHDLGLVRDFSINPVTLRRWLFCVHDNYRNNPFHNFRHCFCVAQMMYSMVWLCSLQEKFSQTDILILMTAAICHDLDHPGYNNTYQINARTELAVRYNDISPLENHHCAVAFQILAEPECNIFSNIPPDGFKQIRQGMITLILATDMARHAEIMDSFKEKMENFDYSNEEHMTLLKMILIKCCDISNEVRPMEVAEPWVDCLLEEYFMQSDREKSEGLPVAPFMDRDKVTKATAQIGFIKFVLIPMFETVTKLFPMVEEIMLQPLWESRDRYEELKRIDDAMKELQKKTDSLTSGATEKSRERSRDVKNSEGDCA
# [17] = target: T6, Cholinesterases; ACHE & BCHE (Homo sapiens); assay: Selectivity index, ratio of IC50 for human plasma BChE to IC50 for human erythrocyte AChE; format: protein assay
# Acetylcholinesterase [18] = target: T4, Acetylcholinesterase; assay: Inhibition of human erythrocyte AChE using acetyl-(beta-methyl)thiocholine as substrate by Ellman's method
# Cholinesterase [19] = target: T5, Cholinesterase; assay: Inhibition of human plasma BChE using S-butyrylthiocholine as substrate by Ellman's method
# Cholinesterase [20] = target: T5, Cholinesterase; assay: Binding affinity of human serum BChE assessed as inhibition constant by Ellman's method
# Acetylcholinesterase [21] = target: T4, Acetylcholinesterase; assay: Inhibition of human AChE using acetylthiocholine iodide as substrate preincubated for 10 mins followed by substrate addition by spectrophotometry
# Acetylcholinesterase [22] = target: Acetylcholinesterase (Electrophorus electricus, UniProt O42275); assay: Inhibition of electric eel AChE using acetylthiocholine iodide as substrate incubated for 5 mins followed by substrate addition by Ellman's method
# Sequence of Acetylcholinesterase (Electrophorus electricus, UniProt O42275) (O42275 whole entry): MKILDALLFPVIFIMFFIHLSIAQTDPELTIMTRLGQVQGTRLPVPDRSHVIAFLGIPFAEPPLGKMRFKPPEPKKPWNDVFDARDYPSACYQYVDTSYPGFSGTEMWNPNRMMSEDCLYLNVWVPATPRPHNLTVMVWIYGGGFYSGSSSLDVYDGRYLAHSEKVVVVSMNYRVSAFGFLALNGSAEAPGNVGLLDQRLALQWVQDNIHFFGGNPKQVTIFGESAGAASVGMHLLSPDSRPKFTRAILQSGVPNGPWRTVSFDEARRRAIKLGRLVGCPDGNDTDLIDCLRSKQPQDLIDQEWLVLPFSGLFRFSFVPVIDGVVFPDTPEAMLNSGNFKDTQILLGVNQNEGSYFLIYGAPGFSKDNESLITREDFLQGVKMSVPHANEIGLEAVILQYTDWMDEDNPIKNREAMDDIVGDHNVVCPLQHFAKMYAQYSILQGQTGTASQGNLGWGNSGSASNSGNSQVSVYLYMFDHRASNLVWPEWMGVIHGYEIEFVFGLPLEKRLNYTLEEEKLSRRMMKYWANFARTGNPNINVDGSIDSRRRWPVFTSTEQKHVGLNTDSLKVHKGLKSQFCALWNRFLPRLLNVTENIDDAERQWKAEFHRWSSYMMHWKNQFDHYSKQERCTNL
# [23] = target: T6, Cholinesterases; ACHE & BCHE (Homo sapiens); assay: Selectivity index, ratio of IC50 for recombinant human serum BChE to IC50 for recombinant human serum AChE; format: protein assay
# Acetylcholinesterase [24] = target: T4, Acetylcholinesterase; assay: Inhibition of recombinant human serum AChE using acetylthiocholine iodide as substrate preincubated for 20 mins followed by substrate addition by Ellman's method
# Cholinesterase [25] = target: T5, Cholinesterase; assay: Inhibition of recombinant human serum BChE using acetylthiocholine iodide as substrate preincubated for 20 mins followed by substrate addition by Ellman's method
# Acetylcholinesterase [26] = target: T4, Acetylcholinesterase; assay: Binding affinity to AChE (unknown origin) assessed as inhibition constant preincubated for 60 mins followed by substrate addition measured after 60 mins by colorimetric method
# Beta-secretase 1 = Beta-secretase 1 (Homo sapiens, UniProt P56817); assay: Inhibition of BACE1 (unknown origin) using A-beta-PP as substrate by fluorescence based assay
# Sequence of Beta-secretase 1 (P56817 whole entry): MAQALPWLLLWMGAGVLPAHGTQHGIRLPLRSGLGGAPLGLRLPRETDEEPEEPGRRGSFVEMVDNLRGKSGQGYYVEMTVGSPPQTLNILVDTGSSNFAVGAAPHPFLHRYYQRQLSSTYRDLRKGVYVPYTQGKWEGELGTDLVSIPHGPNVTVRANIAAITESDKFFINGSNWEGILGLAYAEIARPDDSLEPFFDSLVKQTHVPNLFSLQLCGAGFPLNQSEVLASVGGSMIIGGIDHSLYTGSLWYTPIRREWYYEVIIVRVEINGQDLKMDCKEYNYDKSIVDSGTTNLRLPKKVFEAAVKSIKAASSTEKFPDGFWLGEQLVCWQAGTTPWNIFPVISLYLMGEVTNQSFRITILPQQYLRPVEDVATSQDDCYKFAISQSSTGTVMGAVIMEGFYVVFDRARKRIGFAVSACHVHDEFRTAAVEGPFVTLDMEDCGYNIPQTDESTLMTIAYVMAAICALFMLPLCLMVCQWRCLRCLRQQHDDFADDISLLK
smiles,measurement,setting,value
CC/N=C1\CCc2c1n(C)c1ccc(OC(=O)NC)c(Cl)c21,pIC50,Acetylcholinesterase [1],6.80
same,pIC50,[2],7.00
same,pIC50,[3],< 3.00
CC(=O)N1CC[C@@]2(O)c3cc(OC(=O)Nc4ccccc4)ccc3N[C@@H]12,pIC50,Acetylcholinesterase [4],6.60
same,pIC50,Cholinesterase [5],< 4.00
same,Ratio IC50,[6],> 400
COc1cc2c(c(OC)c1)CC(NC(=O)OCc1ccccc1)C2 (stereo unspecified),pKi,Acetylcholinesterase [7],9.58
same,pKi,Carbonic anhydrase 1,8.25
same,pKi,Carbonic anhydrase 2,8.13
O=C(CCCCC1CCSS1)O[C@@H]1CO[C@H]2[C@@H]1OC[C@@H]2OC(=O)NCc1ccccc1 (stereo partly specified),Ratio IC50,[8],667
C#CCN1CCC(CCc2cccc(OC(=O)Nc3ccccc3)c2)CC1,inhibition,Acetylcholinesterase [9],51.9%
same,inhibition at 100 µM,[10],54%
CCN(CC)C(=O)OC1C[N+]2(C)CCC1CC2 (stereo unspecified),pKi,Acetylcholinesterase [11],5.46
same,pKi,Cholinesterase [12],5.82
CN(CCCOc1ccc2ccc(=O)oc2c1)Cc1cccc(OC(=O)NC2CCCCC2)c1,pIC50,[13],8.88
same,Ratio IC50,[14],2.98
COc1cc(CNc2nc3c(cnn3C3CCCC3)c(=O)[nH]2)ccc1OC(=O)N(C)C,pIC50,Cholinesterase [15],6.01
same,pIC50,[16],7.77
CNC(=O)Oc1ccc2c(c1)[C@]1(C)CCO[C@@H]1N2C,Ratio IC50,[17],27
same,pIC50,Acetylcholinesterase [18],8.40
same,pIC50,Cholinesterase [19],8.17
CC(C)c1ccc(NC(=O)Oc2ccc3c(c2)[C@]2(C)CCN(Cc4ccc(F)cc4)[C@@H]2N3C)cc1,pKi,Cholinesterase [20],6.47
CCOC(=O)C1=CN(C)c2cccc(OC(=O)N(C)C)c2C1,pIC50,Acetylcholinesterase [21],< 3.00
COc1cc2c(cc1OC)C(=O)C(Cc1ccc(OC(=O)Nc3ccc(Cl)cc3)cc1)C2 (stereo unspecified),pIC50,Acetylcholinesterase [22],5.33
CNC(=O)Oc1cccc(CN(C)CCCCCCCOc2ccc(-c3cc(=O)c4ccccc4o3)cc2)c1,Ratio IC50,[23],96
same,pIC50,Acetylcholinesterase [24],9.14
same,pIC50,Cholinesterase [25],7.15
CC(C)(C)OC(=O)Nc1ccc(O)c(C(=O)NCCCN2CCCCC2)c1,pKi,Acetylcholinesterase [26],6.92
same,pIC50,Beta-secretase 1,7.82
O=C(Nc1ccccc1)OC1CN2CCC1CC2 (stereo unspecified),pKi,Acetylcholinesterase [11],6.00
same,pKi,Cholinesterase [12],5.52
